Like-named read-outs stand apart in the source and are kept apart here.
Tests used:
in vitro = type: cell-based; conditions: human
Experimental: (§1) Experimental method for in vitro biological activity study: The HCMV virus used in this experiment contains a reporter gene GFP. The inhibitory activity of the compounds against HCMV was detected by detecting the expression of GFP, and the cytotoxicity was also determined; the compounds were tested at 8 concentrations, with 3-fold gradient dilution, and double wells. MRC5 cells were seeded in microtiter plates at a certain density and cultured overnight at 37° C. in 5% CO2. The compounds and viruses were added the next day. […] The final concentration of DMSO in the cell culture medium was 0.5%, the cells were cultured at 37° C. in 5% CO2 for 7 days, the fluorescence value of each well was detected using Acumen, and the original data were used to calculate the antiviral activity of the compounds. The cytotoxicity experiment was the same as the antiviral experiment, but without viral infection; CCK-8 reagent was used to detect cell viability, and the original data were used to calculate the cytotoxicity of the compounds.

HCMV = experiment: In vitro anti-HCMV activity, GFP reporter virus in MRC5 cells; type: cell-based, Human Cytomegalovirus
Experimental: Experimental method for in vitro biological activity study: The HCMV virus used in this experiment contains a reporter gene GFP. The inhibitory activity of the compounds against HCMV was detected by detecting the expression of GFP, and the cytotoxicity was also determined; the compounds were tested at 8 concentrations, with 3-fold gradient dilution, and double wells. MRC5 cells were seeded in microtiter plates at a certain density and cultured overnight at 37° C. in 5% CO2. The compounds and viruses were added the next day. […] The final concentration of DMSO in the cell culture medium was 0.5%, the cells were cultured at 37° C. in 5% CO2 for 7 days, the fluorescence value of each well was detected using Acumen, and the original data were used to calculate the antiviral activity of the compounds. The cytotoxicity experiment was the same as the antiviral experiment, but without viral infection; CCK-8 reagent was used to detect cell viability, and the original data were used to calculate the cytotoxicity of the compounds. Software GraphPad Prism was used to analyze the dose-response curves of the compounds and calculate the EC50 and CC50 values (see Table 1 for the results).

CMV virus = conditions: after 28 days of treatment; cited from earlier work
[1] = Hepatocyte metabolic stability test; type: in vitro ADME, Human; conditions: for half-life at 1 μM / hepatocyte CLint at 1 μM: tested compounds 1 μM; for CLint scaled at 1 μM: Human, scaled with 120 × 10^6 cells/g liver and 21 g liver/kg, read-out: CLint, hepatic
Experimental: (§2) Test method: The compounds to be tested will be co-incubated with human hepatocyte suspension at a concentration of 1 μM. At different time points, ice acetonitrile containing internal standard was added to the system to terminate the reaction, after vortexing and centrifugation, the supernatant was taken, and the test compounds in the supernatant were analyzed by LC-MS/MS method. The in vitro intrinsic clearance rate was calculated according to the clearance rate constant of the tested compounds in the incubation system. 7-ethoxycoumarin and 7-hydroxycoumarin were used as positive controls, and the blank culture medium incubation group without hepatocytes was used as negative control.
(§3) Data analysis: The ratio of the peak areas of the analyte/internal standard (Aanalyte/AIS) was obtained by the instrument, and the remaining percentage (% Control) was calculated from the ratio of Aanalyste/AIS in the sample at non-zero time point to that at the zero time point. Ln (% Control) was plotted against incubation time and linearly fitted. The clearance constant (k, min^−1), clearance half-life (T1/2, min), and in vitro intrinsic clearance rate (CLint, hepatocyte, μL/min/10^6 cells) of the tested compounds were calculated using the following equation.
(§4) CLint,hepatic (mL/min/kg) refers to the inherent clearance rate of liver in vivo.

[2] = system: human hepatocyte suspension; experiment: Hepatocyte metabolic stability test; type: in vitro ADME; conditions: for k: Human hepatocytes 1.0 × 10^6 cells/mL, tested compounds 1 μM, positive control 3 μM
Experimental: as §2, §3, §4

[3] = cited from earlier work
MRC5 cells = experiment: in vitro; type: cell-based; conditions: human, 7 days
Experimental: as §1

[4] = Human betaherpesvirus 5, 168 h, HCMV with GFP reporter, MRC5 cells, 7 days, read-out: EC50
[5] = Human betaherpesvirus 5, MRC5, Table 1, read-out: activity in inhibiting HCMV
[6] = hepatocyte suspension, Human hepatocytes 1.0 × 10^6 cells/mL, positive control 3 μM
[7] = Human hepatocytes 1.0 × 10^6 cells/mL, positive control 3 μM

Compound	CC50 at 7 days (in vitro) [nM]	EC50 (HCMV; [4]) [nM]	EC50 (HCMV; [5]) [nM]	other results
COc1cc(N2CCN(C3=Nc4c(F)cccc4[C@H](CC(=O)O)N3c3cc(C(F)(F)F)ccc3OC)C[C@H]2C)ccn1 [Compound I-26]	> 50000	0.26	< 1	
COc1cccc(N2CCN(C3=Nc4c(F)cccc4[C@H](CC(=O)O)N3c3cc(C(F)(F)F)ccc3OC)CC2)c1 [Letermovir, letermovir]				CMV virus detection in the patient (CMV virus): no CMV virus was detected; half-life at 1 μM [1, 6]: 5.27 h; hepatocyte CLint at 1 μM [1, 6]: 2.2 µL/min/1e6 cells; CLint scaled at 1 μM ([1]; hepatocyte suspension): 0.332 L/h/kg; k [2]: 0.0022 min⁻¹; bioavailability ([3]; hematopoietic cell transplant (HCT) recipients, letermovir alone): about 37%; bioavailability ([3]; with cyclosporin): 85%
COc1cccc(N2CCN(C3=Nc4c(F)cccc4[C@H](CC(=O)OCOC(C)=O)N3c3cc(C(F)(F)F)ccc3OC)C[C@H]2C)c1 [Compound I-33]	> 50000	0.06	< 1	
CCOc1ccc2ccc(=O)oc2c1 [7-ethoxycoumarin]				half-life at 1 μM [1, 6]: 0.332 h; hepatocyte CLint at 1 μM [1, 6]: 34.8 µL/min/1e6 cells; CLint scaled at 1 μM ([1]; hepatocyte suspension): 5.26 L/h/kg; k [2]: 0.0348 min⁻¹
COc1cccc(N2CCN(C3=Nc4c(F)cccc4[C@H](CC(=O)O)N3c3cc(C(F)(F)F)ccc3OC)CC2)c1 (racemic) [Letermovir (racemic), letermovir (racemic), reference compound]				EC50 (HCMV; HCMV with GFP reporter, MRC5 cells, 7 days, read-out: EC50): 3.92 nM
COc1cccc(N2CCN(C3=Nc4c(F)cccc4[C@H](CC(=O)OCOC(C)=O)N3c3cc(C(F)(F)F)ccc3OC)CC2)c1 [Compound I-8]	> 50000	1.47		
O=c1ccc2ccc(O)cc2o1 [7-hydroxycoumarin]				half-life [1, 7]: 0.288 h; hepatocyte CLint at 1 μM [1, 7]: 40.1 µL/min/1e6 cells; CLint scaled at 1 μM ([1]; hepatocytes): 6.06 L/h/kg; k [2]: 0.0401 min⁻¹
COc1cc(N2CCN(C3=Nc4c(F)cccc4[C@H](CC(=O)OCOC(C)=O)N3c3cc(C(F)(F)F)ccc3OC)C[C@H]2C)ccn1 [Compound I-53]	> 50000	0.32	< 1	
COc1cccc(N2CCN(C3=Nc4c(F)cccc4[C@H](CC(=O)OCOC(=O)C(C)(C)C)N3c3cc(C(F)(F)F)ccc3OC)CC2)c1 [Compound I-13]	> 50000	2.76		
COc1cc(N2CCN(C3=Nc4c(F)cccc4C(CC(=O)OCOC(C)=O)N3c3cc(C(F)(F)F)ccc3OC)CC2C)ccn1 (stereo not shown) [Compound I-49]	> 50000	0.46	< 1	
COC(=O)OCOC(=O)C[C@H]1c2cccc(F)c2N=C(N2CCN(c3cccc(OC)c3)CC2)N1c1cc(C(F)(F)F)ccc1OC [Compound I-5]	> 50000	2.62		
COc1cccc(N2CCN(C3=Nc4c(F)cccc4[C@H](CC(=O)OCc4oc(=O)oc4C)N3c3cc(C(F)(F)F)ccc3OC)CC2)c1 [Compound I-17]		1.52		CC50 (MRC5 cells): 43500 nM
COc1cc(N2CCN(C3=Nc4c(F)cccc4C(CC(=O)O)N3c3cc(C(F)(F)F)ccc3OC)C[C@H]2C)ccn1 (stereo partly shown) [Compound I-24]	> 50000	0.46	< 1	
COc1cccc(N2CCN(C3=Nc4c(F)cccc4[C@H](CC(=O)O)N3c3cc(C(F)(F)F)ccc3OC)C[C@H]2C)c1 [Compound I-25]	> 50000	0.17	< 1	half-life at 1 μM [1, 6]: 74.9 h; hepatocyte CLint at 1 μM [1, 6]: 0.154 µL/min/1e6 cells; CLint scaled at 1 μM ([1]; hepatocyte suspension): 0.0233 L/h/kg; k [2]: 0.000154 min⁻¹; metabolic stability of human hepatocytes compared with letermovir ([2]; human hepatocytes): better metabolic stability
COc1cccc(N2CC3CCC(C2)N3C2=Nc3c(F)cccc3C(CC(=O)O)N2c2cc(C(F)(F)F)ccc2OC)c1 (stereo not shown) [Compound I-19]	23800	2.81		
COc1cccc(N2CCN(C3=Nc4c(F)cccc4C(CC(=O)OCc4oc(=O)oc4C)N3c3cc(C(F)(F)F)ccc3OC)C[C@H]2C)c1 (single isomer, unassigned) [Compound I-41]	39300	0.15	< 1	
COc1cccc(N2CCN(C3=Nc4c(F)cccc4C(CC(=O)O)N3c3cc(C(F)(F)F)ccc3OC)C[C@H]2C)c1 (stereo partly shown) [Compound I-23]	> 50000	0.28	< 1	

— patent US20250163069A1, “HETEROCYCLIC DERIVATIVE, AND PHARMACEUTICAL COMPOSITION AND APPLICATION THEREOF” (priority 2022, published 2025)
